# Test results as given in ChEMBL document CHEMBL1201862, “PubChem BioAssay data set” (2004).
# Where a name gives a salt, the structure may show the parent alone.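 A five-concentration, 48-hour dose response in 96-well plates underlies each endpoint, interpolated linearly between surrounding concentrations. Abbreviation: GI50, concentration required for 50% inhibition of growth.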 Active and inactive are the calls of the source. Cut-off read from the data, not from the text of the source: active = GI50 up to about 1.1 µM and inactive = higher.
# Key:
# Test in all cases: inhibition of tumour cell growth, NCI panel, 48 h
# DMS-273 = test system: DMS-273
# DLD-1 = test system: DLD-1
# XF498 = test system: XF498
# DMS-114 = test system: DMS-114
# HOP-18 = test system: HOP-18
# SNB-78 = test system: SNB-78
# KM-20L2 = test system: KM-20L2
# M19-MEL = test system: M19-MEL
# RXF 631 = test system: RXF 631
SMILES,GI50 (DMS-273),GI50 (DLD-1),GI50 (XF498),GI50 (DMS-114),GI50 (HOP-18),GI50 (SNB-78),GI50 (KM-20L2),GI50 (M19-MEL),GI50 (RXF 631)
CCN1CCC(O)(c2ccccc2)C(C(=O)c2ccccc2)C1 (stereo not given),> 94.4 µM (inactive),19.4 µM (inactive),16.3 µM (inactive),29.9 µM (inactive),14.7 µM (inactive),26.7 µM (inactive),32 µM (inactive),26.7 µM (inactive),–
NCC1(N2CCOCC2)C2CCCC21CNc1ccccc1 (stereo not given),> 100 µM (inactive),> 100 µM (inactive),69.8 µM (inactive),> 100 µM (inactive),> 100 µM (inactive),> 100 µM (inactive),–,> 100 µM (inactive),> 100 µM (inactive)
Cc1cc2c(=O)c(C)n[nH]c2c(C#N)c1C,> 100 µM (inactive),> 100 µM (inactive),> 100 µM (inactive),–,> 100 µM (inactive),–,> 100 µM (inactive),> 100 µM (inactive),> 100 µM (inactive)
CSC1=Nc2ccccc2N=C(c2ccc(Cl)cc2)C1,–,25.9 µM (inactive),36.5 µM (inactive),–,0.0877 µM (active),52.5 µM (inactive),35.5 µM (inactive),36.3 µM (inactive),–
C/C(=N\NC(=S)N1CCC1)c1ccccn1,0.01 µM (active),0.01 µM (active),0.457 µM (active),0.01 µM (active),0.929 µM (active),2.2 µM (inactive),0.01 µM (active),0.0815 µM (active),< 0.0262 µM (active)
C=C(C#N)C1OCC2OC(C)(C)OC21 (stereo not given),19.1 µM (inactive),17.1 µM (inactive),–,22.7 µM (inactive),24.7 µM (inactive),19.7 µM (inactive),–,22 µM (inactive),20.9 µM (inactive)
CC1=NN(C(=O)CC(=O)Nc2ccccc2F)C(=O)C1/N=N/c1ccccc1[N+](=O)[O-] (stereo not given),49.9 µM (inactive),83 µM (inactive),> 100 µM (inactive),57.9 µM (inactive),–,87.3 µM (inactive),> 100 µM (inactive),18.7 µM (inactive),–
C=C1CN2CCc3c([nH]c4ccccc34)C2CC1CC(=O)N(C)C (stereo not given),> 309 µM (inactive),> 309 µM (inactive),> 309 µM (inactive),> 309 µM (inactive),> 309 µM (inactive),–,> 309 µM (inactive),> 309 µM (inactive),–
COC(=O)CC(NC(=O)OCc1ccccc1)C(C(C)=O)C(=O)OCc1ccccc1 (stereo not given),> 31.6 µM (inactive),> 31.6 µM (inactive),> 10 µM (inactive),> 31.6 µM (inactive),> 31.6 µM (inactive),> 31.6 µM (inactive),> 31.6 µM (inactive),> 31.6 µM (inactive),> 10 µM (inactive)
O=C(O)CC12C3C4C5C3C1C5C42 (stereo not given),> 100 µM (inactive),> 100 µM (inactive),> 100 µM (inactive),> 100 µM (inactive),–,> 100 µM (inactive),> 100 µM (inactive),> 100 µM (inactive),–
CCCCCCCCCCCCCC1CCC(CC)N1 (stereo not given),14.5 µM (inactive),14.9 µM (inactive),–,7 µM (inactive),17.1 µM (inactive),13 µM (inactive),13.3 µM (inactive),3.18 µM (inactive),–
CC(=O)OC1COC(n2ccc3cc(Br)c([N+](=O)[O-])cc32)C(OC(C)=O)C1OC(C)=O (stereo not given),29.9 µM (inactive),44.3 µM (inactive),14.3 µM (inactive),27.7 µM (inactive),> 10 µM (inactive),20.8 µM (inactive),31 µM (inactive),29.4 µM (inactive),23.7 µM (inactive)
CC1(Cl)C(=O)NC(=O)N(C2CC(N=[N+]=[N-])C(CO)O2)C1N=[N+]=[N-] (stereo not given),> 100 µM (inactive),> 100 µM (inactive),> 100 µM (inactive),> 100 µM (inactive),–,–,> 100 µM (inactive),> 100 µM (inactive),> 100 µM (inactive)
CCOC(=O)C(CNc1ccc(O)cc1)NC(=O)c1ccccc1 (stereo not given),65 µM (inactive),> 100 µM (inactive),> 100 µM (inactive),> 79.8 µM (inactive),> 100 µM (inactive),> 100 µM (inactive),> 100 µM (inactive),47 µM (inactive),–
CC(=O)/C(=C\c1ccco1)C(=O)Nc1ccccc1,–,> 100 µM (inactive),> 100 µM (inactive),> 100 µM (inactive),> 100 µM (inactive),> 100 µM (inactive),–,> 100 µM (inactive),–
O=C/C1=C/C2=Cc3ccccc3C=C(/C=C(/C=O)C1)C2,34.2 µM (inactive),38.4 µM (inactive),54.5 µM (inactive),38.3 µM (inactive),–,52.7 µM (inactive),> 100 µM (inactive),53.8 µM (inactive),–
CCN(CC)c1c(C)nnn1C1OC(COC(C)=O)C(OC(C)=O)C(OC(C)=O)C1OC(C)=O (stereo not given),> 10 µM (inactive),> 100 µM (inactive),–,> 100 µM (inactive),> 100 µM (inactive),> 100 µM (inactive),> 100 µM (inactive),> 100 µM (inactive),> 100 µM (inactive)
O=C1OC(c2ccccc2)=N/C1=C/N1CCCC1C(=O)O (stereo not given),> 100 µM (inactive),> 100 µM (inactive),> 100 µM (inactive),> 100 µM (inactive),> 100 µM (inactive),> 100 µM (inactive),> 100 µM (inactive),> 100 µM (inactive),> 100 µM (inactive)
NNC(=O)C1CCC(=O)N1S(=O)(=O)c1ccccc1 (stereo not given),> 100 µM (inactive),> 100 µM (inactive),> 100 µM (inactive),> 100 µM (inactive),–,> 100 µM (inactive),> 100 µM (inactive),> 100 µM (inactive),–
Cc1c2cc[n+](C)cc2c(C)c2c1oc1ccccc12,3.57 µM (inactive),8.57 µM (inactive),–,1.31 µM (inactive),6.82 µM (inactive),4.02 µM (inactive),9.98 µM (inactive),2.64 µM (inactive),–
CO[C@@H]1C=C[C@@]23c4cc5c(cc4CN(C[C@@H]2O)[C@H]3C1)OCO5 [(+)-HAEMANTHAMINE],–,15.3 µM (inactive),16.7 µM (inactive),79.6 µM (inactive),21.8 µM (inactive),52.5 µM (inactive),11.7 µM (inactive),16.6 µM (inactive),–
CNC(C)Cc1ccccc1OC (stereo not given) [METHOXYPHENAMINE HYDROCHLORIDE],> 100 µM (inactive),> 100 µM (inactive),> 100 µM (inactive),> 100 µM (inactive),> 100 µM (inactive),> 100 µM (inactive),> 100 µM (inactive),–,> 100 µM (inactive)
